Laboratory results: patent publication US20260013501A1, “HERBICIDAL DERIVATIVES” (SYNGENTA CROP PROTECTION AG, priority 2022, published 2026)

Experiments:
Format in all cases: in vivo
[1] = system: Zea mays (ZEAMX); test: Post-emergence Test (Table B2), ZEAMX; set-up: key: 5-point damage scale: 5=81-100%, 4=61-80%, 3=41-60%, 2=21-40%, 1=0-20%; conditions: evaluated after 13 days
Outline: (§1)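 Score: % damage at 13 d on a 5-point scale (5=81-100%; 4=61-80%; 3=41-60%; 2=21-40%; 1=0-20%). Seeds sown in pots, sprayed with test article in acetone/water 50:50 + 0.5% Tween 20; rate in g/ha. Glasshouse 24/16 °C, 14 h light, 65% RH, watered twice daily.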

[2] = system: Ipomoea hederacea (IPOHE); test: Pre-emergence Test (Table B1), IPOHE; conditions: evaluated after 13 days
[3] = system: Setaria faberi (SETFA); test: Post-emergence Test (Table B2), SETFA; set-up: key: five-point scale: 5=81-100%, 4=61-80%, 3=41-60%, 2=21-40%, 1=0-20% damage; conditions: rate 250 g/Ha, evaluated after 13 days
Procedure: (§2) Seeds of a variety of test species are sown in standard soil in pots (Ipomoea hederacea (IPOHE), Zea mays (ZEAMX), Echinochloa crus-galli (ECHCG), Amaranthus palmeri (AMAPA), (Amaranthus retoflexus (AMARE), and (Setaria faberi (SETFA)). After 8 days cultivation under controlled conditions in a glasshouse (at 24° C./16° C., day/night; 14 hours light; 65% humidity), the plants are sprayed with an aqueous spray solution derived from the formulation of the technical active ingredient in acetone/water (50:50) solution containing 0.5% Tween 20 (polyoxyethelyene sorbitan monolaurate, CAS RN 9005-64-5). Rate of application is shown in g/ha in the tables below. The test plants are then grown in a glasshouse under controlled conditions in a glasshouse (at 24° C./16° C., day/night; 14 hours light; 65% humidity) and watered twice daily. After 13 days the test is evaluated for the percentage damage caused to the plant. The biological activities are shown in the following table on a five-point scale (5=81-100%; 4=61-80%; 3=41-60%; 2=21-40%; 1=0-20%; -=not tested).

[4] = system: Setaria faberi (SETFA); test: Pre-emergence Test (Table B1), SETFA; conditions: evaluated after 13 days
[5] = system: Amaranthus retoflexus (AMARE); test: Pre-emergence Test (Table B1), AMARE; conditions: evaluated after 13 days
[6] = system: Echinochloa crus-galli (ECHCG); test: Pre-emergence Test (Table B1), ECHCG; conditions: evaluated after 13 days
[7] = system: Echinochloa crus-galli (ECHCG); test: Post-emergence Test (Table B2), ECHCG; set-up: key: 5-point damage scale: 5=81-100%, 4=61-80%, 3=41-60%, 2=21-40%, 1=0-20%; conditions: evaluated after 13 days
Outline: as §1

[8] = system: Amaranthus palmeri (AMAPA); test: Pre-emergence Test (Table B1), AMAPA; conditions: Rate 1000 g/Ha, evaluated after 13 days
[9] = system: Zea mays (ZEAMX); test: Pre-emergence Test (Table B1), ZEAMX; conditions: Rate 1000 g/Ha, evaluated after 13 days
[10] = system: Amaranthus retoflexus (AMARE); test: Post-emergence Test (Table B2), AMARE; set-up: key: five-point scale: 5=81-100%, 4=61-80%, 3=41-60%, 2=21-40%, 1=0-20% damage; conditions: rate 1000 g/Ha, evaluated after 13 days
Outline: as §1

[11] = system: Ipomoea hederacea (IPOHE); test: Post-emergence Test (Table B2), IPOHE; set-up: key: five-point scale: 5=81-100%, 4=61-80%, 3=41-60%, 2=21-40%, 1=0-20% damage; conditions: rate 1000 g/Ha, evaluated after 13 days
Procedure: as §2

CCn1c(Cc2ccccc2C(F)(F)F)cc(=O)c(C(=O)O)c1-c1ccc(Cl)c(Cl)c1 [Compound 11, 2-(3,4-dichlorophenyl)-1-ethyl-4-oxo-6-[[2-(trifluoromethyl)phenyl]methyl]pyridine-3-carboxylic acid]
0: percentage damage caused to the plant, ZEAMX ([1]; rate 250 g/Ha) | Pre-emergence Test, percentage damage caused to the plant (five-point scale), IPOHE ([2]; Rate 250 g/Ha) | percentage damage caused to the plant, SETFA [3] | Pre-emergence Test, percentage damage caused to the plant (five-point scale), SETFA ([4]; Rate 250 g/Ha) | Pre-emergence Test, percentage damage caused to the plant (five-point scale), AMARE ([5]; Rate 250 g/Ha) | Pre-emergence Test, percentage damage caused to the plant (five-point scale), ECHCG ([6]; Rate 250 g/Ha) | percentage damage caused to the plant, ECHCG ([7]; rate 250 g/Ha)

CCn1c(Cc2ccc(O)nn2)cc(=O)c(C(=O)O)c1-c1ccc(Cl)c(Cl)c1 [Compound 107, 2-(3,4-dichlorophenyl)-1-ethyl-6-[(6-hydroxypyridazin-3-yl)methyl]-4-oxo-pyridine-3-carboxylic acid]
0: percentage damage caused to the plant, ZEAMX ([1]; rate 1000 g/Ha) | Pre-emergence Test, percentage damage caused to the plant (five-point scale), AMAPA [8] | Pre-emergence Test, percentage damage caused to the plant (five-point scale), IPOHE ([2]; Rate 1000 g/Ha) | Pre-emergence Test, percentage damage caused to the plant (five-point scale), ZEAMX [9] | Pre-emergence Test, percentage damage caused to the plant (five-point scale), SETFA ([4]; Rate 1000 g/Ha) | percentage damage caused to the plant, AMARE [10] | Pre-emergence Test, percentage damage caused to the plant (five-point scale), AMARE ([5]; Rate 1000 g/Ha) | percentage damage caused to the plant, IPOHE [11] | Pre-emergence Test, percentage damage caused to the plant (five-point scale), ECHCG ([6]; Rate 1000 g/Ha) | percentage damage caused to the plant, ECHCG ([7]; rate 1000 g/Ha)

CCn1c(Cc2ccc(C)nn2)cc(=O)c(C(=O)O)c1-c1ccc(Cl)c(Cl)c1 [Compound 139, 2-(3,4-dichlorophenyl)-1-ethyl-6-[(6-methylpyridazin-3-yl)methyl]-4-oxo-pyridine-3-carboxylic acid]
0: percentage damage caused to the plant, ZEAMX ([1]; rate 250 g/Ha) | Pre-emergence Test, percentage damage caused to the plant (five-point scale), SETFA ([4]; Rate 250 g/Ha) | percentage damage caused to the plant, ECHCG ([7]; rate 250 g/Ha)
